# Source: ChEMBL document CHEMBL1150095, “Antitumor activity and stereochemistry of acetylenic alcohols from the sponge Cribrochalina vasculum” (1995)
# Key:
# Format in all cases: functional
# [1] = Antitumor activity against human […] cells
# SNB-19 = assay: Antitumor activity against human SNB19 cells
# MDA-MB-231 = assay: Antitumor activity against human MDA-MB-231 cells
# U-251 = assay: Antitumor activity against human U251 cells
# HL-60(TB) = assay: Antitumor activity against human HL-60(TB) cells
# IGROV-1 = assay: Antitumor activity against human IGROV1 cells
# CCRF-CEM = assay: Antitumor activity against human CCRF-CEM cells
# HT-29 = assay: Antitumor activity against human HT-29 cells
# MDA-MB-435 = assay: Antitumor activity against human MDA-MB-435 cells
# HCC 2998 = assay: Antitumor activity against human HCC2998 cells
# UACC-62 = assay: Antitumor activity against human UACC62 cells
# HCT-15 = assay: Antitumor activity against human HCT15 cells
# OVCAR-4 = assay: Antitumor activity against human OVCAR4 cells
# EKVX = assay: Antitumor activity against human EKVX cells
# NCI-H23 = assay: Antitumor activity against human NCI-H23 cells
# 786-0 = assay: Antitumor activity against human 786-0 cells
# COLO 205 = assay: Antitumor activity against human COLO205 cells
# SNB-75 = assay: Antitumor activity against human SNB75 cells
# SR = assay: Antitumor activity against human SR cells
# CAKI-1 = assay: Antitumor activity against human Caki1 cells
# OVCAR-8 = assay: Antitumor activity against human OVCAR8 cells
# UACC-257 = assay: Antitumor activity against human UACC257 cells
# NCI-H322M = assay: Antitumor activity against human NCI-H322M cells
# DU-145 = assay: Antitumor activity against human DU145 cells
# M14 = assay: Antitumor activity against human M14 cells
# BT-549 = assay: Antitumor activity against human BT549 cells
# SF-268 = assay: Antitumor activity against human SF268 cells
# NCI-H522 = assay: Antitumor activity against human NCI-H522 cells
# NCI-H226 = assay: Antitumor activity against human NCI-H226 cells
# SK-MEL-2 = assay: Antitumor activity against human SK-MEL-2 cells
# UO-31 = assay: Antitumor activity against human UO31 cells
# OVCAR-5 = assay: Antitumor activity against human OVCAR5 cells
# RXF 393 = assay: Antitumor activity against human RXF393 cells
# KM12 = assay: Antitumor activity against human KM12 cells
# SK-OV-3 = assay: Antitumor activity against human SKOV3 cells
# HOP-62 = assay: Antitumor activity against human HOP62 cells
# TK-10 = assay: Antitumor activity against human TK10 cells
# SW-620 = assay: Antitumor activity against human SW620 cells
# SK-MEL-5 = assay: Antitumor activity against human SK-MEL-5 cells
# OVCAR-3 = assay: Antitumor activity against human OVCAR-3 cells
# MCF7 = assay: Antitumor activity against human MCF7 cells
# K562 = assay: Antitumor activity against human K562 cells
# MDA-N = assay: Antitumor activity against human MDA-N cells
# SF-295 = assay: Antitumor activity against human SF295 cells
# Malme-3M = assay: Antitumor activity against human MALME-3M cells
# PC-3 = assay: Antitumor activity against human PC3 cells
# [2] = Antitumor activity against human Hs 578T cells
# [3] = Antitumor activity against human MCF7/ADR cells; conditions: NCI/ADR-RES
# NCI-H460 = assay: Antitumor activity against human NCI-H460 cells
# T47D = assay: Antitumor activity against human T47D cells
# MOLT-4 = assay: Antitumor activity against human MOLT4 cells
# HOP-92 = assay: Antitumor activity against human HOP92 cells
# SN12C = assay: Antitumor activity against human SN12C cells
# SF-539 = assay: Antitumor activity against human SF539 cells
# SK-MEL-28 = assay: Antitumor activity against human SK-MEL-28 cells
# A498 = assay: Antitumor activity against human A498 cells
# HCT-116 = assay: Antitumor activity against human HCT116 cells
# ACHN = assay: Antitumor activity against human ACHN cells
# A549 = assay: Antitumor activity against human A549 cells
# [4] = read-out: pLC50 (the source's name) (converted)
smiles,measurement,setting,value
C#C[C@@H](O)/C=C/CCCCCCCCC/C=C\CCCCCC,GI50,[1],6.76 nM
same,CC50,[1]; [4],129 nM
same,TGI,[1]; read-out: pTGI (converted),18.6 nM
same,GI50,SNB-19,52.5 nM
same,CC50,SNB-19; [4],151 nM
same,TGI,SNB-19; read-out: pTGI (converted),89.1 nM
same,GI50,MDA-MB-231,47.9 nM
same,CC50,MDA-MB-231; [4],145 nM
same,TGI,MDA-MB-231; read-out: pTGI (converted),83.2 nM
same,GI50,U-251,40.7 nM
same,CC50,U-251; [4],138 nM
same,TGI,U-251; read-out: pTGI (converted),74.1 nM
same,GI50,HL-60(TB),10.2 nM
same,CC50,HL-60(TB); [4],129 nM
same,TGI,HL-60(TB); read-out: pTGI (converted),36.3 nM
same,GI50,IGROV-1,0.562 nM
same,CC50,IGROV-1; [4],2.19 nM
same,TGI,IGROV-1; read-out: pTGI (converted),1.12 nM
same,GI50,CCRF-CEM,0.631 nM
same,CC50,CCRF-CEM; [4],61.7 nM
same,TGI,CCRF-CEM; read-out: pTGI (converted),1.55 nM
same,GI50,HT-29,30.9 nM
same,CC50,HT-29; [4],138 nM
same,TGI,HT-29; read-out: pTGI (converted),66.1 nM
same,GI50,MDA-MB-435,26.9 nM
same,CC50,MDA-MB-435; [4],126 nM
same,TGI,MDA-MB-435; read-out: pTGI (converted),57.5 nM
same,GI50,HCC 2998,43.6 nM
same,CC50,HCC 2998; [4],141 nM
same,TGI,HCC 2998; read-out: pTGI (converted),79.4 nM
same,GI50,UACC-62,38.9 nM
same,CC50,UACC-62; [4],135 nM
same,TGI,UACC-62; read-out: pTGI (converted),72.4 nM
same,GI50,HCT-15,36.3 nM
same,CC50,HCT-15; [4],132 nM
same,TGI,HCT-15; read-out: pTGI (converted),69.2 nM
same,GI50,OVCAR-4,18.6 nM
same,CC50,OVCAR-4; [4],112 nM
same,TGI,OVCAR-4; read-out: pTGI (converted),51.3 nM
same,GI50,EKVX,46.8 nM
same,CC50,EKVX; [4],145 nM
same,TGI,EKVX; read-out: pTGI (converted),81.3 nM
same,GI50,NCI-H23,13.5 nM
same,CC50,NCI-H23; [4],110 nM
same,TGI,NCI-H23; read-out: pTGI (converted),45.7 nM
same,GI50,786-0,42.7 nM
same,CC50,786-0; [4],138 nM
same,TGI,786-0; read-out: pTGI (converted),77.6 nM
same,GI50,COLO 205,43.6 nM
same,CC50,COLO 205; [4],141 nM
same,TGI,COLO 205; read-out: pTGI (converted),79.4 nM
same,GI50,SNB-75,12.3 nM
same,CC50,SNB-75; [4],107 nM
same,TGI,SNB-75; read-out: pTGI (converted),43.6 nM
same,GI50,SR,15.5 nM
same,CC50,SR; [4],174 nM
same,TGI,SR; read-out: pTGI (converted),55 nM
same,GI50,CAKI-1,52.5 nM
same,CC50,CAKI-1; [4],162 nM
same,TGI,CAKI-1; read-out: pTGI (converted),91.2 nM
same,GI50,OVCAR-8,37.1 nM
same,CC50,OVCAR-8; [4],132 nM
same,TGI,OVCAR-8; read-out: pTGI,70.8 nM
same,GI50,UACC-257,32.4 nM
same,CC50,UACC-257; [4],126 nM
same,TGI,UACC-257; read-out: pTGI (converted),64.6 nM
same,GI50,NCI-H322M,53.7 nM
same,CC50,NCI-H322M; [4],151 nM
same,TGI,NCI-H322M; read-out: pTGI (converted),91.2 nM
same,GI50,DU-145,47.9 nM
same,CC50,DU-145; [4],145 nM
same,TGI,DU-145; read-out: pTGI (converted),83.2 nM
same,GI50,M14,8.32 nM
same,CC50,M14; [4],100 nM
same,TGI,M14; read-out: pTGI (converted),39.8 nM
same,GI50,BT-549,38.9 nM
same,CC50,BT-549; [4],135 nM
same,TGI,BT-549; read-out: pTGI (converted),72.4 nM
same,GI50,SF-268,38.9 nM
same,CC50,SF-268; [4],138 nM
same,TGI,SF-268; read-out: pTGI (converted),74.1 nM
same,GI50,NCI-H522,0.115 nM
same,LC50,NCI-H522,1.18 nM
same,TGI,NCI-H522; read-out: pTGI (converted),0.436 nM
same,GI50,NCI-H226,30.2 nM
same,CC50,NCI-H226; [4],129 nM
same,TGI,NCI-H226; read-out: pTGI (converted),61.7 nM
same,GI50,SK-MEL-2,8.13 nM
same,CC50,SK-MEL-2; [4],83.2 nM
same,TGI,SK-MEL-2; read-out: pTGI (converted),23.4 nM
same,GI50,UO-31,52.5 nM
same,CC50,UO-31; [4],151 nM
same,TGI,UO-31; read-out: pTGI (converted),89.1 nM
same,GI50,OVCAR-5,46.8 nM
same,CC50,OVCAR-5; [4],145 nM
same,TGI,OVCAR-5; read-out: pTGI (converted),81.3 nM
same,GI50,RXF 393,33.1 nM
same,CC50,RXF 393; [4],132 nM
same,TGI,RXF 393; read-out: pTGI (converted),66.1 nM
same,GI50,KM12,37.1 nM
same,CC50,KM12; [4],132 nM
same,TGI,KM12; read-out: pTGI,70.8 nM
same,GI50,SK-OV-3,61.7 nM
same,CC50,SK-OV-3; [4],158 nM
same,TGI,SK-OV-3; read-out: pTGI (converted),100 nM
same,GI50,HOP-62,52.5 nM
same,CC50,HOP-62; [4],151 nM
same,TGI,HOP-62; read-out: pTGI (converted),89.1 nM
same,GI50,TK-10,60.3 nM
same,CC50,TK-10; [4],155 nM
same,TGI,TK-10; read-out: pTGI (converted),97.7 nM
same,GI50,SW-620,9.33 nM
same,CC50,SW-620; [4],112 nM
same,TGI,SW-620; read-out: pTGI (converted),42.7 nM
same,GI50,SK-MEL-5,32.4 nM
same,CC50,SK-MEL-5; [4],129 nM
same,TGI,SK-MEL-5; read-out: pTGI (converted),64.6 nM
same,GI50,OVCAR-3,49 nM
same,CC50,OVCAR-3; [4],145 nM
same,TGI,OVCAR-3; read-out: pTGI (converted),85.1 nM
same,GI50,MCF7,13.8 nM
same,CC50,MCF7; [4],123 nM
same,TGI,MCF7; read-out: pTGI (converted),47.9 nM
same,GI50,K562,30.9 nM
same,CC50,K562; [4],155 nM
same,TGI,K562; read-out: pTGI (converted),69.2 nM
same,GI50,MDA-N,25.1 nM
same,CC50,MDA-N; [4],115 nM
same,TGI,MDA-N; read-out: pTGI (converted),53.7 nM
same,GI50,SF-295,44.7 nM
same,CC50,SF-295; [4],145 nM
same,TGI,SF-295; read-out: pTGI (converted),79.4 nM
same,GI50,Malme-3M,6.31 nM
same,CC50,Malme-3M; [4],72.4 nM
same,TGI,Malme-3M; read-out: pTGI (converted),20.4 nM
same,GI50,PC-3,39.8 nM
same,CC50,PC-3; [4],138 nM
same,TGI,PC-3; read-out: pTGI (converted),74.1 nM
same,GI50,[2],44.7 nM
same,CC50,[2]; [4],170 nM
same,TGI,[2]; read-out: pTGI (converted),87.1 nM
same,GI50,[3],38 nM
same,CC50,[3]; [4],138 nM
same,TGI,[3]; read-out: pTGI (converted),72.4 nM
same,GI50,NCI-H460,42.7 nM
same,CC50,NCI-H460; [4],151 nM
same,TGI,NCI-H460; read-out: pTGI (converted),79.4 nM
same,GI50,T47D,6.31 nM
same,CC50,T47D; [4],115 nM
same,TGI,T47D; read-out: pTGI (converted),42.7 nM
same,GI50,MOLT-4,6.46 nM
same,CC50,MOLT-4; [4],126 nM
same,TGI,MOLT-4; read-out: pTGI (converted),26.9 nM
same,GI50,HOP-92,46.8 nM
same,CC50,HOP-92; [4],145 nM
same,TGI,HOP-92; read-out: pTGI (converted),83.2 nM
same,GI50,SN12C,28.8 nM
same,CC50,SN12C; [4],123 nM
same,TGI,SN12C; read-out: pTGI (converted),58.9 nM
same,GI50,SF-539,44.7 nM
same,CC50,SF-539; [4],141 nM
same,TGI,SF-539; read-out: pTGI (converted),79.4 nM
same,GI50,SK-MEL-28,41.7 nM
same,CC50,SK-MEL-28; [4],138 nM
same,TGI,SK-MEL-28; read-out: pTGI (converted),75.9 nM
same,GI50,A498,58.9 nM
same,CC50,A498; [4],155 nM
same,TGI,A498; read-out: pTGI (converted),95.5 nM
same,GI50,HCT-116,25.1 nM
same,CC50,HCT-116; [4],117 nM
same,TGI,HCT-116; read-out: pTGI (converted),55 nM
same,GI50,ACHN,45.7 nM
same,CC50,ACHN; [4],141 nM
same,TGI,ACHN; read-out: pTGI (converted),79.4 nM
same,GI50,A549,45.7 nM
same,CC50,A549; [4],148 nM
same,TGI,A549; read-out: pTGI (converted),83.2 nM
